Measured values: PubChem BioAssay (NCI)
Several values for one entry are separate records, joined by “and”; a condition that tells them apart may be missing. Identical values can stand only once.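 Each compound was tested at five concentrations against cells in 96-well plates for 48 hours. The concentration for 50% growth inhibition is given as GI50. TGI: concentration producing complete growth inhibition.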

What was measured:
Experiment in all cases: NCI anticancer screen, dose series, 48 h
[1] = test system: CAKI-1 renal
[2] = test system: HL-60(TB) leukemia
[3] = test system: HOP-92 NSCLC
[4] = test system: HT29 colon
[5] = test system: M14 melanoma
[6] = test system: MOLT-4 leukemia
[7] = test system: NCI-H23 lung
[8] = test system: RPMI-8226 leukemia
[9] = test system: SF-295 CNS
[10] = test system: SK-MEL-2 melanoma

| Structure (SMILES) | TGI [1] | TGI [2] | TGI [3] | TGI [4] | TGI [5] | TGI [6] | TGI [7] | TGI [8] | TGI [9] | TGI [10] | GI50 [1] | GI50 [2] | GI50 [3] | GI50 [4] | GI50 [5] | GI50 [6] | GI50 [7] | GI50 [8] | GI50 [9] | GI50 [10] |
| --- | --- | --- | --- | --- | --- | --- | --- | --- | --- | --- | --- | --- | --- | --- | --- | --- | --- | --- | --- | --- |
| CNC(=O)OCc1nc(SSc2nc(COC(=O)NC)c(COC(=O)NC)n2C)n(C)c1COC(=O)NC | > 100 µM | > 100 µM | > 100 µM | > 100 µM | > 100 µM | > 100 µM | > 100 µM | > 100 µM | > 100 µM | > 100 µM | – | – | – | – | – | – | – | – | – | – |
| OCC1OC(OC2(CO)OC(CO)C(O)C2O)C(O)C(O)C1O (centres undefined) | > 100 µM | > 100 µM | > 100 µM | > 100 µM | > 100 µM | > 100 µM | > 100 µM | > 100 µM | > 100 µM | > 100 µM | > 100 µM | > 100 µM | > 100 µM | > 100 µM | > 100 µM | > 100 µM | > 100 µM | > 100 µM | > 100 µM | > 100 µM |
| O=C(O)c1ccccc1NCn1nc(-c2ccccc2O)oc1=S | > 100 µM | > 100 µM | 94.6 µM | > 100 µM | > 100 µM | 30 µM | > 100 µM | 24.5 µM | > 100 µM | > 100 µM | > 100 µM | 64.9 µM | 30.4 µM | 34.9 µM | 46.3 µM | 9.98 µM | 40.1 µM | 4.14 µM | > 100 µM | > 100 µM |
| Cn1cc(-c2ccc3ncc(-c4ccc(CC(=O)Nc5cc(C(C)(C)C)nn5C)cc4)cc3c2)cn1 | 7.15 µM | 8.28 µM | > 20 µM | > 20 µM | > 20 µM | 3.25 µM | > 20 µM | 4.07 µM | > 20 µM | 7.14 µM | 0.541 µM | 1.2 µM | 2.45 µM | 3.99 µM | 0.984 µM | 0.706 µM | 1.1 µM | 0.64 µM | 1.58 µM | 0.789 µM |
| O=C(Nc1ccc(-n2cc(-c3ccncc3)c(-c3ccc(Cl)c(O)c3)n2)cc1)c1cc(C(F)(F)F)cc(C(F)(F)F)c1 | 42.9 µM | > 100 µM | 26.2 µM | 28.9 µM | 89.2 µM | > 100 µM | 29.5 µM | > 100 µM | 18.1 µM | 31.7 µM | 7.48 µM | > 100 µM | 3.89 µM | 3.43 µM | 6.34 µM | 8.87 µM | 6.09 µM | 3.86 µM | 3.31 µM | 6.61 µM |
| CCN(CC)CCNc1n[n+]([O-])c2cc([N+](=O)[O-])ccc2[n+]1[O-] | 1.79 µM and 2.7 µM and 1.97 µM | 0.381 µM and 0.278 µM and 0.0882 µM | 1.93 µM and 2.53 µM and 2.28 µM | 2.41 µM and 2.22 µM and 1.71 µM | 2.17 µM and 2.63 µM and 2.02 µM | 0.292 µM and 0.198 µM and 0.176 µM | 1.55 µM and 1.58 µM and 1.94 µM | 1.77 µM and 1.72 µM and 1.02 µM | 1.95 µM and 3.08 µM and 2.64 µM | 3 µM and 2.02 µM and 2.88 µM | – | 0.14 µM and 0.0691 µM and 0.0173 µM | 0.163 µM and 0.297 µM and 0.449 µM | – | – | 0.0833 µM and 0.0383 µM and 0.0339 µM | 0.117 µM and 0.275 µM and 0.146 µM | 0.27 µM and 0.285 µM and 0.122 µM | 0.253 µM and 0.447 µM and 0.186 µM | 1.39 µM and 0.639 µM and 0.575 µM |
| CC(C)N(C(=O)C12C3C4C1C1C4(C#N)C3C12C(=O)O)C(C)C (centres undefined) | > 100 µM | > 63 µM | > 100 µM | > 100 µM | > 100 µM | > 100 µM | > 100 µM | > 66.7 µM | > 100 µM | > 100 µM | – | – | – | – | – | – | – | – | – | – |
| CN1CCCc2nc3ccccc3n2C1 | > 100 µM | > 100 µM | > 100 µM | > 100 µM | > 100 µM | > 100 µM | > 100 µM | 68.8 µM | > 100 µM | > 100 µM | – | – | – | – | – | – | – | – | – | – |
| COc1cccc(-c2cc(=O)c3cc(N4CCN(C)CC4)ccc3[nH]2)c1 | > 100 µM | 3.04 µM and 1.23 µM | – | 5.68 µM and 5.83 µM | > 100 µM | 7.21 µM | – | 6.11 µM | – | > 100 µM | 0.722 µM | 0.41 µM | 3.1 µM | 1.78 µM | 2.61 µM | 2.06 µM | 3.45 µM | 1.93 µM | 8.34 µM | 3.16 µM |
| COc1ccc(N(CC(=O)O)N=O)cc1 | > 100 µM | > 100 µM | > 100 µM | > 100 µM | > 100 µM | > 100 µM | > 100 µM | > 100 µM | > 100 µM | > 100 µM | – | – | – | – | – | – | – | – | – | – |
| Cc1ccccc1Nc1cc(O)c2c(=O)cc(-c3ccccc3)oc2c1 | > 100 µM | > 100 µM | > 100 µM | > 100 µM | > 100 µM | > 100 µM | > 100 µM | > 100 µM | > 100 µM | > 100 µM | 2.77 µM | 2.16 µM | 3.51 µM | 3.25 µM | 2.39 µM | 2.66 µM | 4.75 µM | 2.87 µM | 2.36 µM | 2.44 µM |
| COS(=O)c1cc(Cl)cc(Cl)c1OC(=O)CSSCC(=O)Oc1c(Cl)cc(Cl)cc1S(=O)OC (centres undefined) | 63.1 µM | 52.9 µM | 53.2 µM | 96.9 µM | 46.3 µM | 46.2 µM | 27.8 µM | 38.3 µM | 67.5 µM | 51.4 µM | – | – | – | – | – | – | – | – | – | – |
| CCOC(=O)[C@@H](C)C[C@H](Cc1ccccc1)NC(=O)c1csc([C@@H](C[C@H](C(C)C)N(C)C(=O)CNC(=O)[C@H]2CCCCN2C)OC(C)=O)n1 | > 14.3 µM | 1.01 µM | 2.63 µM | > 14.3 µM | 7.31 µM | > 14.3 µM | > 14.3 µM | > 14.3 µM | 6.85 µM | > 14.3 µM | 0.771 µM | 0.312 µM | 0.254 µM | 0.467 µM | 0.804 µM | 3.12 µM | 2.34 µM | 0.496 µM | 0.621 µM | 0.69 µM |
| O=C1Nc2ccc(-c3cccnc3)cc2/C1=C/c1cc(Br)c(O)c(Br)c1 | > 23.7 µM | > 22.1 µM | > 25 µM | > 25 µM | > 21.9 µM | > 25 µM | > 21.9 µM | 19.7 µM | 13.7 µM | 6.85 µM | 4.83 µM | 6.97 µM | 8.32 µM | 7.06 µM | 4.45 µM | 8.04 µM | 6.86 µM | 5.38 µM | 5.25 µM | 3.11 µM |
